Consider 64 molecules from patent publication US11649236B2, “Polycyclic carbamoylpyridone derivative” (Shionogi & Co., Ltd., priority 2018, dated 2023).

One may read the EC50 as the concentration at which the effect is half-maximal. Low readings indicate greater potency, high ones weaker potency.

This assay has as its system HIV. Kind of assay: Anti-HIV activity (MT-4 cells, MTT). Type of assay: cell-based. The settings on record: Human immunodeficiency virus 1, MT4, 96 h, cultured 4 days. On the procedure: Serial dilutions of a test sample were prepared in a 96-well microplate (50 μL/well). 2.5×10^5 cells/mL of a MT-4 cell suspension was dispensed at 100 μL/well to the plate containing the test sample. Then, an HIV virus solution was dispensed at 50 μL/well. The plate was mixed with a plate mixer and cultured for 4 days in a CO2 incubator. An MTT (3-(4,5-dimethylthiazol-2-yl)-2,5-diphenyltetrazolium bromide) solution was dispensed at 30 μL/well. The plate was reacted for 1 hour in a CO2 incubator. 150 μL of the supernatant was removed from each well so as not to take up the cells. 150 μL of a cell lysis solution was added to each well and well mixed with a plate mixer until the cells were completely lysed. The absorbance of the mixed plate was measured at two wavelengths of 560 nm and 690 nm with a microplate reader.
Consider `CCN1C(=O)c2c(O)c(=O)c(C(=O)NCc3ccc(F)cc3F)cn2N2[C@@H]3CCC[C@@H]3C[C@@H]12` [II-025], for which the EC50 was 1.1 nM.
With `CN1C(=O)c2c(O)c(=O)c(C(=O)NCc3ccc(Cl)cc3F)cn2N2Cc3ccccc3[C@@H]12` [II-029], the EC50 worked out at 3.8 nM.
As for `CCN1C(=O)c2c(O)c(=O)c(C(=O)NCc3ccc(F)cc3F)cn2N2[C@H]3CCC[C@H]3CC[C@@H]12` [II-030], the response was half-maximal at 0.86 nM (EC50).
As for `CCN1C(=O)c2c(O)c(=O)c(C(=O)NCc3cccc(Cl)c3F)cn2N2[C@H](C)CCC[C@@H]12` [II-032], a half-maximal effect (EC50) was put at 1.5 nM.
As for `CN1C(=O)c2c(O)c(=O)c(C(=O)NCc3ccc(F)c(Cl)c3F)cn2N2CCCC[C@@H]12` [II-033], the EC50 was 0.22 nM.
Then `CCOC[C@@H](C)N1C(=O)c2c(O)c(=O)c(C(=O)NCc3ccc(F)cc3F)cn2N2CCCC[C@@H]12` [II-034], with 0.73 nM; and `CCN1C(=O)c2c(O)c(=O)c(C(=O)NCc3c(F)cc(F)cc3OC)cn2N2CCCC[C@@H]12` [II-035], with 1.3 nM; and `C[C@@H]1CCN2[C@@H](C1)N(C)C(=O)c1c(O)c(=O)c(C(=O)NCc3cccc(Cl)c3F)cn12` [II-036], with 3.8 nM.
Next, `CCN1C(=O)c2c(O)c(=O)c(C(=O)NCc3ccc(F)cc3F)cn2N2C[C@H]3C[C@H](C3)[C@@H]12` [II-037]: 0.64 nM; `CCN1C(=O)c2c(O)c(=O)c(C(=O)NCc3ccc(F)cc3F)cn2N2[C@@H](COC)CC[C@@H]12` [II-038]: 2 nM; `CCN1C(=O)c2c(O)c(=O)c(C(=O)NCc3ccc(F)cc3F)cn2N2CCC(C)(C)C[C@@H]12` [II-039]: 2.9 nM.
Then `C[C@H](N1C(=O)c2c(O)c(=O)c(C(=O)NCc3ccc(F)cc3F)cn2N2CCCC[C@@H]12)C(F)(F)F` [II-043], with 1.4 nM.
`CCN1C(=O)c2c(O)c(=O)c(C(=O)NCc3c(F)cc(F)cc3F)cn2N2CC[C@@H](C)C[C@@H]12` [II-044]: the EC50 amounted to 0.84 nM.
Then `CN1C(=O)c2c(O)c(=O)c(C(=O)NCc3ccc(Cl)cc3F)cn2N2CCCC[C@@H]12` [II-045], with 2 nM; and `C[C@@H]1CC[C@H]2N(C)C(=O)c3c(O)c(=O)c(C(=O)NCc4cccc(Cl)c4F)cn3N12` [II-047], with 0.57 nM.
Next, `CCN1C(=O)c2c(O)c(=O)c(C(=O)NCc3c(F)ccc(C#N)c3F)cn2N2CCCC[C@@H]12` [II-050]: 2.8 nM.
Next, `CCN1C(=O)c2c(O)c(=O)c(C(=O)NCc3ccc(F)cc3F)cn2N2C[C@H](C)CC[C@@H]12` [II-052]: 0.62 nM.
`CCN1C(=O)c2c(O)c(=O)c(C(=O)NCc3c(F)cc(F)cc3F)cn2N2[C@H](C)CCC[C@@H]12` [II-053] displayed an EC50 of 1.4 nM.
Next, `Cc1c(F)ccc(CNC(=O)c2cn3c(c(O)c2=O)C(=O)N(C)[C@@H]2CCCCN23)c1F` [II-054]: 0.34 nM; `CCN1C(=O)c2c(O)c(=O)c(C(=O)NCc3ccc(F)cc3F)cn2N2CC[C@H](COC)C[C@@H]12` [II-055]: 0.58 nM.
Next, `CCN1C(=O)c2c(O)c(=O)c(C(=O)NCc3ccc(F)nc3F)cn2N2C[C@@H]3CC[C@@H](C3)[C@@H]12` [II-056]: 0.83 nM; `CCN1C(=O)c2c(O)c(=O)c(C(=O)NCc3ccc(F)nc3F)cn2N2CCCC[C@@H]12` [II-057]: 1.7 nM; `C[C@H]1CCN2[C@@H](C1)N(C)C(=O)c1c(O)c(=O)c(C(=O)NCc3cccc(Cl)c3F)cn12` [II-058]: 0.79 nM.
Next, `CCN1C(=O)c2c(O)c(=O)c(C(=O)NCc3ccc(F)cc3F)cn2N2C[C@H](OC)CC[C@@H]12` [II-059]: 0.66 nM.
Regarding `C[C@H]1CCN2[C@@H](C1)N(C)C(=O)c1c(O)c(=O)c(C(=O)NCc3ccc(Cl)cc3F)cn12` [II-061], the EC50 was 3.4 nM.
Then `CCN1C(=O)c2c(O)c(=O)c(C(=O)NCc3ccnc(Cl)c3F)cn2N2CCCC[C@@H]12` [II-062], with 3.2 nM; and `CN1C(=O)c2c(O)c(=O)c(C(=O)NCc3cccc(Cl)c3F)cn2N2Cc3ccccc3[C@@H]12` [II-063], with 3.6 nM.
Next, `CC(C)N1C(=O)c2c(O)c(=O)c(C(=O)NCc3c(F)cc(F)cc3F)cn2N2CC[C@@H](C)C[C@@H]12` [II-064]: 1.2 nM; `C[C@H]1C[C@H]2N(C)C(=O)c3c(O)c(=O)c(C(=O)NCc4ccc(Cl)cc4F)cn3N2C1` [II-065]: 4.9 nM; `CCN1C(=O)c2c(O)c(=O)c(C(=O)NCc3ccc(F)cc3F)cn2N2CCC3(C[C@@H]12)OCCO3` [II-067]: 0.62 nM.
Then `CCN1C(=O)c2c(O)c(=O)c(C(=O)NCc3ccc(F)cc3F)cn2N2[C@H](C)CC[C@@H]12` [II-068], with 0.61 nM; and `CCN1C(=O)c2c(O)c(=O)c(C(=O)NCc3c(F)cc(F)cc3F)cn2N2CC[C@H](C)C[C@@H]12` [II-069], with 0.9 nM.
`CCN1C(=O)c2c(O)c(=O)c(C(=O)NCc3ccc(F)cc3F)cn2N2CC[C@H](C)[C@@H]12` [II-073] yielded an EC50 of 0.25 nM.
Then `CN1C(=O)c2c(O)c(=O)c(C(=O)NCc3ccc(F)c(F)c3F)cn2N2CCCC[C@@H]12` [II-074], with 0.71 nM; and `C[C@@H]1CCN2[C@@H](C1)N(C)C(=O)c1c(O)c(=O)c(C(=O)NCc3ccc(Cl)cc3F)cn12` [II-075], with 6.3 nM.
Next, `CCN1C(=O)c2c(O)c(=O)c(C(=O)NCc3ncc(Cl)cc3F)cn2N2CCCC[C@@H]12` [II-076]: 3.3 nM; `CCN1C(=O)c2c(O)c(=O)c(C(=O)NCc3ccc(F)cc3F)cn2N2[C@@H]3CCC[C@@H]3CC[C@@H]12` [II-078]: 1.1 nM.
`CCN1C(=O)c2c(O)c(=O)c(C(=O)NCc3ccc(F)cc3F)cn2N2Cc3ccc(F)cc3[C@@H]12` [II-079] showed an EC50 of 0.66 nM.
Then `CCN1C(=O)c2c(O)c(=O)c(C(=O)NCc3c(F)ccc(F)c3F)cn2N2CCCC[C@@H]12` [II-080], with 0.58 nM; and `CCN1C(=O)c2c(O)c(=O)c(C(=O)NCc3ccc(F)nc3F)cn2N2CC[C@H](C)C[C@@H]12` [II-081], with 3.1 nM.
Next, `CCN1C(=O)c2c(O)c(=O)c(C(=O)NCc3c(F)cccc3F)cn2N2CCCC[C@@H]12` [II-082]: 0.74 nM; `CCN1C(=O)c2c(O)c(=O)c(C(=O)NCc3ccc(F)cc3F)cn2N2C[C@@H]3C[C@@H]3[C@@H]12` [II-083]: 0.95 nM; `CCN1C(=O)c2c(O)c(=O)c(C(=O)NCc3ccc(F)cc3F)cn2N2Cc3ccc(Cl)cc3[C@@H]12` [II-084]: 1.8 nM.
Next, `CCN1C(=O)c2c(O)c(=O)c(C(=O)NCc3ccc(F)cc3F)cn2N2CCC(C)(C)[C@@H]12` [II-085]: 1.3 nM; `C[C@@H]1CCN2[C@@H](C1)N(C)C(=O)c1c(O)c(=O)c(C(=O)NCc3ccc(F)cc3F)cn12` [II-086]: 1 nM; `CCN1C(=O)c2c(O)c(=O)c(C(=O)NCc3ccc(F)cc3F)cn2N2CCN(CCOC)C[C@@H]12` [II-088]: 3.1 nM.
As to `CC[C@@H]1CC[C@H]2N(CC)C(=O)c3c(O)c(=O)c(C(=O)NCc4ccc(F)cc4F)cn3N12` [II-089], a half-maximal effect (EC50) was put at 0.94 nM.
Then `C[C@@H]1CCC[C@H]2N(C)C(=O)c3c(O)c(=O)c(C(=O)NCc4ccc(Cl)cc4F)cn3N12` [II-091], with 4.1 nM; and `CCN1C(=O)c2c(O)c(=O)c(C(=O)NCc3ccccc3F)cn2N2CCCC[C@@H]12` [II-092], with 0.33 nM.
Next, `C[C@@H]1CCC[C@H]2N(C)C(=O)c3c(O)c(=O)c(C(=O)NCc4c(F)cc(F)cc4F)cn3N12` [II-094]: 0.57 nM.
Then `CCN1C(=O)c2c(O)c(=O)c(C(=O)NCc3ncc(F)cc3Cl)cn2N2CCCC[C@@H]12` [II-095], with 1.9 nM.
`CCN1C(=O)c2c(O)c(=O)c(C(=O)NCc3ccc(F)cc3F)cn2N2CCOCC[C@@H]12` [II-096]: the EC50 was 0.68 nM.
Then `CCN1C(=O)c2c(O)c(=O)c(C(=O)NCc3c(F)cc(F)cc3F)cn2N2Cc3ccccc3[C@@H]12` [II-097], with 1 nM; and `CCN1C(=O)c2c(O)c(=O)c(-c3nnc(Cc4ncc(Cl)cc4F)s3)cn2N2CCCC[C@@H]12` [II-098], with 4 nM.
Then `CCN1C(=O)c2c(O)c(=O)c(C(=O)NCc3ccc(F)cc3F)cn2N2CCN(Cc3ccccc3)C[C@@H]12` [II-100], with 3 nM; and `CCN1C(=O)c2c(O)c(=O)c(C(=O)NCc3ccc(F)cc3F)cn2N2CCN(CC3CC3)C[C@@H]12` [II-101], with 1.6 nM; and `CN1C(=O)c2c(O)c(=O)c(C(=O)NCc3ccnc(Cl)c3F)cn2N2CCCC[C@@H]12` [II-103], with 3.7 nM.
Then `CCN1C(=O)c2c(O)c(=O)c(C(=O)NCc3ccc(F)cc3F)cn2N2CCCOC[C@@H]12` [II-107], with 2.3 nM.
In turn, `CCN1C(=O)c2c(O)c(=O)c(C(=O)NCc3ccc(F)cc3F)cn2N2CC=C[C@@H]12` [II-109] registered an EC50 of 2.4 nM.
Next, `CCN1C(=O)c2c(O)c(=O)c(C(=O)NCc3ccc(F)cc3F)cn2N2CCN(C(=O)NC)C[C@@H]12` [II-110]: 2.1 nM; `C[C@H]1CCN2[C@@H](C1)N(C)C(=O)c1c(O)c(=O)c(C(=O)NCc3ccc(F)cc3F)cn12` [II-113]: 0.72 nM.
Then `CCN1C(=O)c2c(O)c(=O)c(C(=O)NCc3ccc(F)cc3F)cn2N2CC[C@H](C(F)(F)F)C[C@@H]12` [II-114], with 1.5 nM.
Then `CN1C(=O)c2c(O)c(=O)c(C(=O)NCc3c(F)cc(F)cc3F)cn2N2C[C@@H]3CC[C@@H](O3)[C@@H]12` [II-115], with 0.87 nM.
The molecule `CN1C(=O)c2c(O)c(=O)c(C(=O)NCc3ccc(F)cc3F)cn2N2Cc3ccccc3[C@@H]12` [II-116] had an EC50 of 0.68 nM.
